Test results published in US12583841B2, “Tetrahydropyrrolocyclic compound and application thereof” (Breakthrough Pharmaceuticals Inc., priority 2021, dated 2026).

What was measured:
OX2R = target: T1, OX2R (Homo sapiens, UniProt O43614); assay: FLIPR intracellular calcium antagonism test, HEK293-OX2R cells; format: cell-based; conditions: Orexin A at EC70, read-out: hOX2R IC50
T1 construct: expressed in transfected cells
T1 sequence (O43614 1-444): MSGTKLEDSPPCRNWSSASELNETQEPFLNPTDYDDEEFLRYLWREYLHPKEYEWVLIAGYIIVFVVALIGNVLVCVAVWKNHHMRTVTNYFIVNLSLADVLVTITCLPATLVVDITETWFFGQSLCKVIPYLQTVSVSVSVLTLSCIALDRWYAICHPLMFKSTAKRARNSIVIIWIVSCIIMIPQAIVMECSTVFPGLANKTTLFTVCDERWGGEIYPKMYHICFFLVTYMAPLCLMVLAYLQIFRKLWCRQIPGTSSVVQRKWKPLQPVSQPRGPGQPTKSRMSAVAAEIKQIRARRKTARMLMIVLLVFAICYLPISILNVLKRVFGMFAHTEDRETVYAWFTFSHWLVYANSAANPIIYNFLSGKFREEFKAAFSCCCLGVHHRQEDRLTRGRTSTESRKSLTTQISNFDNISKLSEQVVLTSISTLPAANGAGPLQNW
Description: (§1) The change of intracellular calcium signal was detected by FLIPR, and the antagonism of the compounds on OX1R and OX2R receptors was evaluated by using IC50 value of the compounds as an index.
(§2) • Cell lines: Transfected HEK293-OX1R and HEK293-OX2R stable cell lines • HEK293-OX1R cell culture medium (DMEM, Invitrogen #11960-044, 10% serum Gibco #10099141, L-Glutamine 1×, Gibco #25030, sodium pyruvate 1×, Gibco #11360, Geneticin 300 μg/mL, Gibco #10131) • HEK293-OX2R cell culture medium (DMEM, Invitrogen #11960-044, 10% serum Gibco #10099141, L-Glutamine 1×, Gibco #25030, sodium pyruvate 1×, Gibco #11360, Geneticin 300 μg/mL, Gibco #10131, Blasticin 2 μg/mL, Invitrogen #R21001)
(§3) Experimental Steps and Methods: • a) Cell seeding (HEK293-OX1R and HEK293-OX2R cells) • 1) preheating the culture medium, trypsin and DPBS under water bath at 37° C.; pipetting and removing the medium of cell culture and washing same with 10 mL of DPBS; • 2) adding the preheated trypsin to a culture flask, rotating the culture flask so that the trypsin evenly covered the culture flask, and putting the culture flask in a 37° C., 5% CO2 incubator for digestion for 1-2 min; • 3) suspending the cells with 10-15 mL of medium for each T150 and centrifuging at 800 rpm for 5 min; resuspending the cells with 10 mL of medium, pipetting 1 mL of the cell suspension and counting with Vi-cell; • 4) diluting OX1R cells with medium to 5×10^5 cells/mL, and diluting OX2R cells with medium to 4×10^5 cells/mL, and adding the diluted cells to 384 plate (Greiner.781946) with a multi-channel pipette (50 μL/well, 25000 cells/well for OX1R cells, 20000 cells/well for OX2R cells); placing the cell plate in a 37° C., 5% CO2 incubator overnight. • b) Compound loading: • 1) diluting the compound to 20 mM with DMSO, 3-fold dilution, 8 gradients, duplicate wells, and adding same to a compound plate with an Echo liquid handler; then adding 20 μL of buffer to maintain the final concentration of DMSO of 0.1%. • c) FLIPR experiment: • 1) washing off the cell culture medium in the 384 plate with a vacuum pump, adding […] Direct fluorescent dye, incubating in 37° C., 5% CO2 incubator for 1 h, and balancing at room temperature for another 10 min. • 2) EC50 test: manually diluting Orexin A on ice, 3-fold dilution, 8 gradients, duplicate wells; preparing a DMSO plate and keep the DMSO concentration to be 0.5%; putting the cell plate, OrexinA plate, and DMSO plate in FLIPR respectively, and reading the fluorescence value. • 3) calculating the EC70 value based on the EC50 value of Orexin A; preparing a 5×EC70 solution, adding same to 384 compound plate with a multi-channel pipette, and storing on ice; • 4) putting the compound plate, 5×EC70 plate, cell plate, and FLIPR tip in sequence in FLIPR, running the program, and reading the fluorescence value. • d) Data analyzing: using Prism5.0 to analyze the data, and calculating the IC50 value of the compound.

OX1R = target: T2, OX1R (Homo sapiens, UniProt O43613); assay: FLIPR intracellular calcium antagonism test, HEK293-OX1R cells; format: cell-based; conditions: Orexin A at EC70, read-out: hOXIR IC50
T2 construct: expressed in transfected cells
T2 sequence (O43613 1-425): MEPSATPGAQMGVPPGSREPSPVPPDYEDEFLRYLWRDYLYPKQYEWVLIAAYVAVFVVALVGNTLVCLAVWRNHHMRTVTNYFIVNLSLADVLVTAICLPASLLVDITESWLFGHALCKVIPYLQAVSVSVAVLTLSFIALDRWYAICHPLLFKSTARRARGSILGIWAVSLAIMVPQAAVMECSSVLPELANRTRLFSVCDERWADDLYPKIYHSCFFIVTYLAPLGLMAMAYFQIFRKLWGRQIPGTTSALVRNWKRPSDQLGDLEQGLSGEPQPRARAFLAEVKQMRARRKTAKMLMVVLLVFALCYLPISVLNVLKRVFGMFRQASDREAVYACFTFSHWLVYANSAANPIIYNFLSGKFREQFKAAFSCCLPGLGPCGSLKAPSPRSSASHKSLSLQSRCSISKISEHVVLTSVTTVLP
Description: as §1, §2, §3

Row | SMILES | IC50 (OX2R) | IC50 (OX1R)
1 | COc1ccc2nc([C@@H]3C[C@H]4C[C@H]4N3C(=O)c3ccccc3-n3nccn3)[nH]c2c1 [Compound 2] | 72 nM | > 10000 nM
2 | COc1ccc(-n2nccn2)c(C(=O)N2C[C@@H]3C[C@@H]3[C@H]2c2nc3ccc(OC)cc3[nH]2)c1 [Compound 4] | 64 nM | 462 nM
3 | COc1ccc2nc([C@@H]3[C@H]4C[C@H]4CN3C(=O)c3cc(C)ccc3-n3nccn3)[nH]c2c1 [Compound 5] | 96 nM | 337 nM
4 | COc1ccc2nc([C@@H]3[C@H]4C[C@H]4CN3C(=O)c3c(F)cccc3-n3nccn3)[nH]c2c1 [Compound 6] | 299 nM | 1420 nM
5 | COc1ccc2nc([C@@H]3C[C@H]4C[C@H]4N3C(=O)c3ccc(F)cc3-n3nccn3)[nH]c2c1 [Compound 9] | 42 nM | 3170 nM
6 | COc1ccc2[nH]c([C@@H]3C[C@H]4C[C@H]4N3C(=O)c3cc(F)ccc3-n3nccn3)nc2c1 [Compound 11] | 33 nM | 3600 nM
7 | COc1ccc2[nH]c([C@@H]3C[C@H]4C[C@H]4N3C(=O)c3c(F)cccc3-n3nccn3)nc2c1 [Compound 12] | 81 nM | 1280 nM
8 | COc1ccc2[nH]c([C@@H]3C[C@H]4C[C@H]4N3C(=O)c3cc(C)ccc3-c3ncccn3)nc2c1 [Compound 13] | 60 nM | 2440 nM

Stronger by IC50 (OX2R), values ahead:

Row | IC50 (OX2R) | IC50 (OX1R) | SMILES
9 | 30 nM | 1040 nM | COc1ccc2[nH]c([C@@H]3C[C@H]4C[C@H]4N3C(=O)c3cc(Cl)ccc3-n3nccn3)nc2c1 [Compound 14]
10 | 25 nM | > 10000 nM | COc1ccc2nc([C@@H]3[C@H]4C[C@H]4CN3C(=O)c3ccccc3-n3nccn3)[nH]c2c1 [Compound 1]
11 | 24 nM | 877 nM | COc1ccc2nc([C@@H]3C[C@H]4C[C@H]4N3C(=O)c3cc(C)ccc3-n3nccn3)[nH]c2c1 [Compound 7]
12 | 17 nM | 710 nM | COc1ccc2[nH]c([C@@H]3C[C@H]4C[C@H]4N3C(=O)c3ccc(C)cc3-n3nccn3)nc2c1 [Compound 10]
